In patent publication US20260028354A1, “TETRAHYDRONAPHTHALENE DERIVATIVES AS ESTROGEN RECEPTOR DEGRADERS” (REGENT OF THE UNIVERSITY OF MICHIGAN, priority 2022, published 2026):
Like-named read-outs stand apart in the source and are kept apart here.

Molecular target: ER in MCF-7 cells (Homo sapiens (Human), UniProt P03372)
Assay: In-cell Western (ICW) ER degradation assay in MCF-7 cells
Assay type: cell-based
Details: for DC50: MCF-7, ER degradation, read-out: MCF7 DC50
Source text: In-cell Western (ICW) assays in MCF-7 and T47D cell lines.
Day 3: After 16 hrs of compounds treatment, cells were fixed by 4% PFA and permeabilized with elution buffer (0.1% Triton X-100 in 1% PBS Solution). Subsequently, cells were blocked with Intercept (PBS) Blocking Buffer (Li-COR, Odyssey Blocking Buffer), and were stained with ER (1:500, Cell signaling) primary antibody for overnight at cold room.
Day 4: Remove the buffer, add IRDye 800CW Goat anti-Rabbit IgG Secondary Antibody (1:2000) and CellTag 700 Stain (1:500) in Intercept (PBS) Blocking Buffer. Finally, cell plate is placed in incubator to dry. Image and signal were captured on Odyssey® DLx Imaging System.

[1] = MCF7, read-out: MCF7 Dmax, MCF-7, maximal ER degradation, 16 hrs treatment
[2] = MCF7, MCF-7, maximal ER degradation, 16 hrs treatment, read-out: MCF7 Dmax

Chain of ER in MCF-7 cells (P03372 whole entry): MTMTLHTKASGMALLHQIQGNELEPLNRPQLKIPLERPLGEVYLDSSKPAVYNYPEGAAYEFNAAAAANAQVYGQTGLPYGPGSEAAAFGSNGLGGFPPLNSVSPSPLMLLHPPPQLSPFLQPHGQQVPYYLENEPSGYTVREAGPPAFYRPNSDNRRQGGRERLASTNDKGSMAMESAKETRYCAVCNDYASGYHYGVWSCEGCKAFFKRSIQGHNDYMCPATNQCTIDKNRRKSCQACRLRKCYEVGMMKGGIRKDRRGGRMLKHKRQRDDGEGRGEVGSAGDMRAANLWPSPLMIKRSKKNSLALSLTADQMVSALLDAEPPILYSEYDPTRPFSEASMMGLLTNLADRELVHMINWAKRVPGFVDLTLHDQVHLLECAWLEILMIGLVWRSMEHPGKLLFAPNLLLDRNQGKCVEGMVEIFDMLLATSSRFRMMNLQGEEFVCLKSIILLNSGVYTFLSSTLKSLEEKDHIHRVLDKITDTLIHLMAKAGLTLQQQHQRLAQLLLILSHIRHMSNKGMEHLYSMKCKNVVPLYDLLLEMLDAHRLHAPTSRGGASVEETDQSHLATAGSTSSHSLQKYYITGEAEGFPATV

Row | DC50 (16 hrs treatment) | Dmax [2] | SMILES | Dmax [1] | MCF7 Dmax (MCF-7, maximal ER degradation, 16 hrs treatment)
1 | 1 to 10 nM | 50 to 75% | O=C1CC[C@H](NC(=O)c2ccc3c(n2)OC[C@H]2CN(CC4CCC5(CC4)CN(c4ccc([C@@H]6c7ccc(O)cc7CC[C@@H]6c6ccccc6)cn4)C5)CCN32)C(=O)N1 (single isomer, unassigned) [Compound A127] | – | –
2 | 10 to 100 nM | 50 to 75% | COc1cc(N2CC3(CCC(CN4CCN5c6ccc7c(c6OC[C@H]5C4)CN([C@H]4CCC(=O)NC4=O)C7=O)CC3)C2)c(F)cc1[C@H]1c2ccc(O)cc2CC[C@H]1c1ccccc1 (single isomer, unassigned) [Compound A165] | – | –
3 | < 1 nM | – | COc1cc(N2CC3(CC(CN4CCC5(CC4)COc4c5ccc5c4CN(C4CCC(=O)NC4=O)C5=O)C3)C2)c(F)cc1[C@@H]1c2ccc(O)cc2CC[C@@H]1c1ccccc1 (stereo partly drawn) [Compound A184, (S)-3-(1′-((2-(2-fluoro-4-((1S, 2S)-6-hydroxy-2-phenyl-1,2,3,4-tetrahydronaphthalen-1-yl)-5-methoxyphenyl)-2-aza-spiro[3.3]heptan-6-yl)methyl)-6-oxo-6,8-dihydro-2H,7H-spiro[furo[2,3-e]isoindole-3,4′-piperidin]-7-yl)piperidine-2,6-dione] | – | –
4 | 1 to 10 nM | 50 to 75% | O=C1CC[C@H](N2Cc3c(ccc4c3OC[C@H]3CN(CC5CC6(CCN(c7ncc([C@H]8c9ccc(O)cc9CC[C@H]8c8ccccc8)cn7)CC6)C5)CCN43)C2=O)C(=O)N1 (single isomer, unassigned) [Compound A139] | – | –
5 | < 1 nM | > 75% | COc1c([C@@H]2c3ccc(O)cc3CC[C@@H]2c2ccccc2)ccc(N2CCC(CN3CCN4c5cc6c(cc5OC[C@@H]4C3)C(=O)N([C@H]3CCC(=O)NC3=O)C6)CC2)c1F (single isomer, unassigned) [Compound A171] | – | –
6 | 10 to 100 nM | 25 to 50% | COc1cc(N2CC3(CCC(CN4CCN5c6cc7c(cc6OC[C@@H]5C4)C(=O)N([C@H]4CCC(=O)NC4=O)C7)CC3)C2)c(F)cc1[C@H]1c2ccc(O)cc2CC[C@H]1c1ccccc1 [Compound A169, (S)-3-((S)-3-((2-(2-fluoro-4-((1R,2R)-6-hydroxy-2-phenyl-1,2,3,4-tetrahydronaphthalen-1-yl)-5-methoxyphenyl)-2-azaspiro[3.5]nonan-7-yl)methyl)-8-oxo-1,2,3,4,4a,5,8,10-octahydro-9H-pyrazino[1′,2′: 4,5][1,4]oxazino[2,3-f]isoindol-9-yl)piperidine-2,6-dione] | – | –
7 | < 1 nM | 50 to 75% | O=C1CC[C@H](N2Cc3c(ccc4c3OC[C@H]3CN(C[C@@H]5COC6(CCN(c7ccc([C@@H]8c9ccc(O)cc9CC[C@@H]8c8ccccc8)cn7)CC6)C5)CCN43)C2=O)C(=O)N1 (single isomer, unassigned) [Compound A138] | – | –
8 | 1 to 10 nM | > 75% | O=C1CC[C@H](N2Cc3cc4c(cc3C2=O)OC[C@@H]2CN(CC3CC5(CCN(c6ccc([C@H]7c8ccc(O)cc8CC[C@H]7c7ccccc7)cc6F)CC5)C3)CCN42)C(=O)N1 (single isomer, unassigned) [Compound A149] | – | –
9 | 1 to 10 nM | < 25% | O=C1CC[C@H](N2Cc3c(ccc4c3OC[C@H]3CN(CC5COC6(CCN(c7ccc([C@H]8c9ccc(O)cc9CC[C@H]8c8ccccc8)cn7)CC6)C5)CCN43)C2=O)C(=O)N1 (single isomer, unassigned) [Compound A137] | – | –
10 | 10 to 100 nM | 50 to 75% | O=C1CC[C@H](N2Cc3cc4c(cc3C2=O)OC[C@@H]2CN(CC3CC5(CCN(c6ncc([C@H]7c8ccc(O)cc8CC[C@H]7c7ccccc7)cn6)CC5)C3)CCN42)C(=O)N1 (single isomer, unassigned) [Compound A143] | – | –
11 | 1 to 10 nM | 50 to 75% | O=C1CC[C@H](N2Cc3cc4c(cc3C2=O)OC[C@@H]2CN(CC3CC5(CCN(c6ncc([C@@H]7c8ccc(O)cc8CC[C@@H]7c7ccccc7)cn6)CC5)C3)CCN42)C(=O)N1 (single isomer, unassigned) [Compound A144] | – | –
12 | 10 to 100 nM | 50 to 75% | O=C1CC[C@H](N2Cc3c(ccc4c3OC[C@H]3CN(CC5CC6(CCN(c7ccc([C@@H]8c9ccc(O)cc9CC[C@@H]8c8ccccc8)cc7F)CC6)C5)CCN43)C2=O)C(=O)N1 (single isomer, unassigned) [Compound A145] | – | –

Row | SMILES | DC50 (16 hrs treatment) | Dmax [2] | Dmax [1] | MCF7 Dmax (MCF-7, maximal ER degradation, 16 hrs treatment)
13 | COc1cc(N2CC3(CCC(CN4CCC5(CC4)COc4cc6c(cc45)CN([C@H]4CCC(=O)NC4=O)C6=O)CC3)C2)c(F)cc1[C@H]1c2ccc(O)cc2CC[C@H]1c1ccccc1 [Compound A172, (S)-3-(1′-((2-(2-fluoro-4-((1R,2R)-6-hydroxy-2-phenyl-1,2,3,4-tetrahydronaphthalen-1-yl)-5-methoxyphenyl)-2-azaspiro[3.5]nonan-7-yl)methyl)-7-oxo-5,7-dihydro-2H,6H-spiro[furo[2,3-f]isoindole-3,4′-piperidin]-6-yl)piperidine-2,6-dione] | 10 to 100 nM | – | 25 to 50% | –
14 | O=C1CC[C@H](N2Cc3cc4c(cc3C2=O)OCC42CCN(CC3CC4(CCN(c5ccc([C@@H]6c7ccc(O)cc7CC[C@@H]6c6ccccc6)cc5)CC4)C3)CC2)C(=O)N1 [Compound A182, (S)-3-(1′-((7-(4-((1R,2S)-6-hydroxy-2-phenyl-1,2,3,4-tetra-hydronaphthalen-1-yl)phenyl)-7-azaspiro[3.5]nonan-2-yl)-methyl)-7-oxo-5,7-dihydro-2H, 6H-spiro[furo[2,3-f]isoindole-3,4′-piperidin]-6-yl)piperidine-2,6-dione] | < 1 nM | – | 50 to 75% | –
15 | COc1cc(N2CC3(CCC(CN4CCC5(CC4)COc4c5ccc5c4CN([C@H]4CCC(=O)NC4=O)C5=O)CC3)C2)c(F)cc1[C@H]1c2ccc(O)cc2CC[C@H]1c1ccccc1 [Compound A168, (S)-3-(1′-((2-(2-fluoro-4-((1R,2R)-6-hydroxy-2-phenyl-1,2,3,4-tetrahydronaphthalen-1-yl)-5-methoxyphenyl)-2-azaspiro[3.5]nonan-7-yl)methyl)-6-oxo-6,8-dihydro-2H,7H-spiro[furo[2,3-e]isoindole-3,4′-piperidin]-7-yl)piperidine-2,6-dione] | 1 to 10 nM | – | 50 to 75% | –
16 | COc1cc(N2CCC3(CC2)CC(CN2CCC4(CC2)COc2nc(C(=O)N[C@H]5CCC(=O)NC5=O)ccc24)C3)c(F)cc1[C@@H]1c2ccc(O)cc2CC[C@@H]1c1ccccc1 [Compound A190, N-((S)-2,6-dioxopiperidin-3-yl)-1′-((7-(2-fluoro-4-((1S,2S)-6-hydroxy-2-phenyl-1,2,3,4-tetrahydronaphthalen-1-yl)-5-methoxyphenyl)-7-azaspiro [3.5]nonan-2-yl)methyl)-2H-spiro[furo[2,3-b]pyridine-3,4′-piperidine]-6-carboxamide] | < 1 nM | – | 50 to 75% | –
17 | O=C1CC[C@H](N2Cc3cc4c(cc3C2=O)OCC42CCN(CC3CCN(c4ccc([C@@H]5c6ccc(O)cc6CC[C@@H]5c5ccccc5)cc4)CC3)CC2)C(=O)N1 [Compound A186, (S)-3-(1′-((1-(4-((1R,2S)-6-hydroxy-2-phenyl-1,2,3,4-tetra-hydronaphthalen-1-yl)phenyl)-piperidin-4-yl)methyl)-7-oxo-5,7-dihydro-2H,6H-spiro[furo [2,3-f]isoindole-3,4′-piperidin]-6-yl)piperidine-2,6-dione] | < 1 nM | – | 50 to 75% | –
18 | COc1cc(N2CC3(CCC(CN4CCC5(CC4)COc4cc6c(cc45)CN([C@H]4CCC(=O)NC4=O)C6=O)CC3)C2)c(F)cc1[C@@H]1c2ccc(O)cc2CC[C@@H]1c1ccccc1 [Compound A167, (S)-3-(1′-((2-(2-fluoro-4-((1S, 2S)-6-hydroxy-2-phenyl-1,2,3,4-tetrahydronaphthalen-1-yl)-5-methoxyphenyl)-2-aza-spiro[3.5]nonan-7-yl)methyl)-7-oxo-5,7-dihydro-2H,6H-spiro [furo[2,3-f]isoindole-3,4′-piper-idin]-6-yl)piperidine-2,6-dione] | < 1 nM | – | 50 to 75% | –
19 | O=C1CC[C@H](N2Cc3c(ccc4c3OCC43CCN(CC4CC5(CCN(c6ccc([C@@H]7c8ccc(O)cc8CC[C@@H]7c7ccccc7)cc6F)CC5)C4)CC3)C2=O)C(=O)N1 [Compound A146, (S)-3-(1′-((7-(2-fluoro-4-((1R,2S)-6-hydroxy-2-phenyl-1,2,3,4-tetrahydronaphthalen-1-yl)phenyl)-7-azaspiro[3.5]nonan-2-yl)methyl)-6-oxo-6,8-dihydro-2H,7H-spiro[furo[2,3-e]isoindole-3,4′-piperidin]-7-yl)piperidine-2,6-dione] | 10 to 100 nM | – | 25 to 50% | –
20 | O=C1CC[C@H](N2Cc3cc4c(cc3C2=O)OCC42CCN(CC3CCC4(CC3)CN(c3ccc([C@@H]5c6ccc(O)cc6CC[C@@H]5c5ccccc5)cn3)C4)CC2)C(=O)N1 [Compound A128, (S)-3-(1′-((2-(5-((1S,2S)-6-hydroxy-2-phenyl-1,2,3,4-tetrahydronaphthalen-1-yl)pyridin-2-yl)-2-azaspiro[3.5]nonan-7-yl)methyl)-7-oxo-5,7-dihydro-2H,6H-spiro[furo[2,3-f]isoindole-3,4′-piperidin]-6-yl)piperidine-2,6-dione] | 1 to 10 nM | – | 50 to 75% | –
21 | O=C1CC[C@H](N2Cc3cc4c(cc3C2=O)OC[C@@H]2CN(CC3CCC5(CC3)CN(c3ccc([C@@H]6c7ccc(O)cc7CC[C@@H]6c6ccccc6)cn3)C5)CCN42)C(=O)N1 [Compound A130, (S)-3-((S)-3-((2-(5-((1S,2S)-6-hydroxy-2-phenyl-1,2,3,4-tetrahydronaphthalen-1-yl)pyridin-2-yl)-2-azaspiro[3.5]nonan-7-yl)methyl)-8-oxo-1,2,3,4,4a,5,8,10-octahydro-9H-pyrazino[1′,2′:4,5][1,4]oxazino[2,3-f]isoindol-9-yl)piperidine-2,6-dione] | 1 to 10 nM | – | – | A (“A”: >=75%)
